From paper PMC9667936, “Functional mapping of the 14-3-3 hub protein as a guide to design 14-3-3 molecular glues” (Chemical Science, 2022)
Like-named read-outs stand apart in the source and are kept apart here. Where a SMILES comes first, the peptide text is derived from it. [ ]: non-standard residue; d: D form. ξ: configuration not given here. Phe(4-NO2) = N[C@@H](Cc1ccc([N+](=O)[O-])cc1)C(=O)O; ξAla(4-thiazolyl) = NC(Cc1cscn1)C(=O)O; pS = N[C@@H](COP(=O)(O)O)C(=O)O; β3hS = N[C@@H](CO)CC(=O)O; Nva = CCC[C@H](N)C(=O)O; ξβ3hS = NC(CO)CC(=O)O; βAla = NCCC(=O)O

Target: T1, 14-3-3γ (Homo sapiens, UniProt P61981)
T1 construct: made in house; host or cells: E. coli NiCo21 (DE3)
T1 sequence (P61981 1-247): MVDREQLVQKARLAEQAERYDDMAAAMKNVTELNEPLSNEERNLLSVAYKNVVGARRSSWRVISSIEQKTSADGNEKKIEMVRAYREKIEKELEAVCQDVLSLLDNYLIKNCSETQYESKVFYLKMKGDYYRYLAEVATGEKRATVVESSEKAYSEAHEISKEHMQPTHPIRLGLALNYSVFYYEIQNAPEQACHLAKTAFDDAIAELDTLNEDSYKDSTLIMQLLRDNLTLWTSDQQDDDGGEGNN
Assay: Isothermal titration calorimetry (ITC) of 14-3-3 binding to peptide
Details: for ΔG / Kd / ΔH / -TΔS / ΔH (ITC) / -TΔS (ITC) / ΔG (ITC) / KD (ITC): 25 °C; for Kd: Table S6 (unit as in Table S5)
Description: 14-3-3γ protein expression (FP/ITC experiments)
A pPROEX HTb expression vector encoding the human 14-3-3 protein gamma (14-3-3γ) with an N-terminal his6-tag was transformed by heat shock into NiCo21 (DE3) competent cells. Single colonies were cultured in 50 mL LB medium (100 µg/mL ampicillin). After overnight incubation at 37 °C, cultures were transferred to 2 L TB media (100 µg/mL ampicillin, 1 mM MgCl2) and incubated at 37 °C until an OD600 nm of 0.8-1.2 was reached. Protein expression was then induced with 0.4 mM isopropyl-β-d-thiogalactoside (IPTG), and cultures were incubated overnight at 18 °C. Cells were harvested by centrifugation (8600 rpm, 20 minutes, 4 °C) and resuspended in lysis buffer (50 mM Hepes, pH 8.0, 300 mM NaCl, 12.5 mM imidazole, 5 mM MgCl2, 2 mM βME) containing cOmplete™ EDTA-free Protease Inhibitor Cocktail tablets (1 tablet/100 ml lysate) and benzonase (1 µl/100 ml). After lysis using a C3 Emulsiflex-C3 homogenizer (Avestin), the cell lysate was cleared by centrifugation (20000 rpm, 30 minutes, 4 °C) and purified using Ni2+-affinity chromatography (Ni-NTA superflow cartridges, Qiagen).
Typically two 5 mL columns (flow 5 mL/min) were used for a 2 L culture in which the lysate was loaded on the column washed with 10 CV wash buffer (50 mM Hepes, pH 8.0, 300 mM NaCl, 25 mM imidazole, 2 mM βME) and eluted in several fractions (2-4 CV) of elution buffer (50 mM Hepes, pH 8.0, 300 mM NaCl, 250 mM imidazole, 2 mM βME). Fractions containing the 14-3-3 protein were combined and dialyzed into 25 mM HEPES pH 8.0, 100 mM NaCl, 10 mM MgCl2, 500 µM TCEP. […]
The peptides 1 and 2a-d were synthesized on 50 µmol scale on a Rink amide MBHA resin (Novabiochem, 0.52 mmol/g loading) using an automated Intavis MultiPep RSi peptide synthesizer.
Deprotection was performed twice per cycle with 20% v/v piperidine in DMF for 8 minutes. Fmoc-protected amino acids were mixed in 5 equivalents of HBTU and 9 equivalents of DIPEA in DMF, and coupled to the resin. With the exception of phosphoserine, which was coupled once for 60 minutes, all amino acids were coupled to the resin twice for 30 minutes. Capping of unreacted amino acids was performed with a mixture of acetic anhydride/pyridine/DMF (1:1:3) for 5 minutes. βAla was incorporated as a spacer between the sequence and Lys(Alloc), to which a FITC fluorophore will be coupled for fluorescence anisotropy studies.
The peptides 1 and 2e-i were synthesized manually on a 50 µmol scale using Rink amide MBHA resin (Novabiochem, 0.52 mmol/g loading) via Fmoc based solid phase peptide synthesis. […]
(lex: 485 ± 20 nm; lem: 535 ± 25 nm; mirror: Dichroic 510; flashes: 20; integration time: 50 ms; settle time:
0 ms; gain: optimal; and Z-position: calculated from well). […]
Data was obtained and averaged based on two
To determine the cooperativity parameters from the 2D-titration of 14-3-3/ChREBP/2d (as described above) we have used the general framework for straightforward model construction of multi-component thermodynamic equilibrium systems as described by Geertjens et al. (2021).10 This general platform generates a model to describe multi-component equilibrium systems when given a system description.
In our case we gave the following system description: […]
α (with 95% confidence interval) and the error-landscape of the determine parameters.
Fluorescence anisotropy (FA) – Selectivity study: Peptides representing 14-3-3 binding partners (including ChREBP) were titrated in a 2-fold dilution series (starting at 100 µM) to 20 nM of fluorescein-labeled peptide 2d in presence and absence of, respectively, 2 µM 14-3-3γ in FA buffer (10 mM HEPES pH 7.4, 150 mM NaCl, 0.1% (v/v) Tween20, 0.1% (w/v) BSA). Dilution series were made in a polystyrene (non-binding) low-volume Corning Black Round Bottom 384-well plates (Corning 4514 or 4511).
Measurements were performed directly after plate preparation, using a Tecan Infinite F500 plate reader at room temperature (lex: 485 ± 20 nm; lem: 535 ± 25 nm; mirror: Dichroic 510; flashes: 20; integration […]

[1] = Table S5, ΔG minus ΔG of peptide 1, ITC, first unlabelled line (replicate 1)
[2] = Table S5, ΔG minus ΔG of peptide 1, ITC, second unlabelled line (replicate 2)
[3] = Table S5, ΔG of peptide minus ΔG of peptide 1, ITC, mean of n = 2
[4] = ITC, average of two runs, read-out: Kd
[5] = Table S6 (unit given in Fig. 4 legend), ITC, average of two runs
[6] = Table S6, ITC, average of two runs

SMILES | ΔG (Table S5, ITC, mean of n = 2) [kcal/mol] | ΔG (Table S5, ITC, replicate 1) [kcal/mol] | ΔG (Table S5, ITC, replicate 2) [kcal/mol] | ΔΔG to 1 [1] [kcal/mol] | ΔΔG to 1 [2] [kcal/mol] | ΔΔG to 1 [3] [kcal/mol] | Kd [4] [nM] | Kd (ITC, run 1) | Kd (ITC, run 2) | ΔH [5] | -TΔS [6] | ΔG [6] | -TΔS (Table S6, ITC, run 1) | ΔG (Table S6, ITC, run 1) | ΔH (Table S6, ITC, run 1) | -TΔS (Table S6, ITC, run 2) | ΔG (Table S6, ITC, run 2) | ΔH (Table S6, ITC, run 2) | further results
CCC[C@H](NC(=O)[C@H](N)CCCCN)C(=O)N[C@@H](Cc1ccc([N+](=O)[O-])cc1)C(=O)NC(Cc1cscn1)C(=O)N[C@@H](COP(=O)(O)O)C(=O)N[C@@H](Cc1ccc([N+](=O)[O-])cc1)C(=O)N[C@@H](CO)CC(=O)NCCC(=O)N[C@@H](Cc1ccc(O)cc1)C(=O)N[C@@H](CCCCN)C(N)=O (stereo partly drawn) [5a] (H-[dK][Nva][Phe(4-NO2)][ξAla(4-thiazolyl)][pS][Phe(4-NO2)][β3hS][βAla]YK-NH2; N-terminus and C-terminus assumed) | -7.8 | -7.9 | -7.6 | 2.1 | 2.4 | 2.2 | 2060 | 1,55E-06 M | 2,57E-06 M | -5,21 kcal mol^-1 | -2,57 kcal mol^-1 | -7,78 kcal mol^-1 | -1,834 kcal mol^-1 | -7,925 kcal mol^-1 | -6,091 kcal mol^-1 | -3,299 kcal mol^-1 | -7,626 kcal mol^-1 | -4,328 kcal mol^-1 | –
CCC[C@H](NC(=O)[C@H](N)CCCCN)C(=O)N[C@@H](Cc1ccc([N+](=O)[O-])cc1)C(=O)NC(Cc1cscn1)C(=O)N[C@@H](COP(=O)(O)O)C(=O)N[C@@H](Cc1ccc([N+](=O)[O-])cc1)C(=O)N[C@@H](CO)CC(=O)NCCC(=O)N[C@@H](Cc1ccccc1)C(=O)N[C@@H](CCCCN)C(N)=O (stereo partly drawn) [5b] (H-[dK][Nva][Phe(4-NO2)][ξAla(4-thiazolyl)][pS][Phe(4-NO2)][β3hS][βAla]FK-NH2; N-terminus and C-terminus assumed) | -7.9 | -7.9 | -7.8 | 2.1 | 2.2 | 2.1 | 1450 | 1,06E-06 M | 1,85E-06 M | -4,72 kcal mol^-1 | -3,16 kcal mol^-1 | -7,88 kcal mol^-1 | -3,227 kcal mol^-1 | -7,943 kcal mol^-1 | -4,716 kcal mol^-1 | -3,096 kcal mol^-1 | -7,821 kcal mol^-1 | -4,725 kcal mol^-1 | increase of enthalpy (ΔH) on removal of the nitro group, relative to peptide 1 (ITC, n = 2, Fig. 4c): ~6 kcal/mol
CCC[C@H](NC(=O)[C@H](N)CCCCN)C(=O)N[C@@H](Cc1ccc([N+](=O)[O-])cc1)C(=O)NC(Cc1cscn1)C(=O)N[C@@H](COP(=O)(O)O)C(=O)N[C@@H](Cc1ccc([N+](=O)[O-])cc1)C(=O)N[C@@H](CO)CC(=O)NCCC(=O)N[C@@H](C)C(=O)N[C@@H](CCCCN)C(N)=O (stereo partly drawn) [5c] (H-[dK][Nva][Phe(4-NO2)][ξAla(4-thiazolyl)][pS][Phe(4-NO2)][β3hS][βAla]AK-NH2; N-terminus and C-terminus assumed) | -7.4 | -7.4 | -7.3 | 2.6 | 2.7 | 2.6 | 3910 | 3,48E-06 M | 4,33E-06 M | -2,89 kcal mol^-1 | -4,49 kcal mol^-1 | -7,38 kcal mol^-1 | -5,204 kcal mol^-1 | -7,446 kcal mol^-1 | -2,242 kcal mol^-1 | -3,779 kcal mol^-1 | -7,317 kcal mol^-1 | -3,539 kcal mol^-1 | –
CCC[C@H](NC(=O)[C@H](N)CCCCN)C(=O)N[C@@H](Cc1ccc([N+](=O)[O-])cc1)C(=O)NC(Cc1cscn1)C(=O)N[C@@H](COP(=O)(O)O)C(=O)N[C@@H](Cc1ccc([N+](=O)[O-])cc1)C(=O)NC(CO)CC(=O)NCCC(=O)N[C@@H](Cc1ccc([N+](=O)[O-])cc1)C(=O)N[C@@H](CCCCN)C(N)=O (stereo partly drawn) [compound 1] (H-[dK][Nva][Phe(4-NO2)][ξAla(4-thiazolyl)][pS][Phe(4-NO2)][ξβ3hS][βAla][Phe(4-NO2)]K-NH2) | -10.0 | -10.0 | -10.0 | – | – | – | – | – | – | -10,71 kcal mol^-1 | 0,68 kcal mol^-1 | -10,03 kcal mol^-1 | 0,933 kcal mol^-1 | -10,03 kcal mol^-1 | -10,96 kcal mol^-1 | 0,426 kcal mol^-1 | -10,02 kcal mol^-1 | -10,45 kcal mol^-1 | free binding energy ΔG (ITC) (ITC): -10.0 kcal/mol; ΔH (ITC) (Table S1 (unit given in Fig. 4 legend), ITC, mean of n = 2): -10.7 kcal/mol; -TΔS (ITC) (Table S1, ITC, mean of n = 2): 0.7 kcal/mol; ΔG (ITC) (Table S1, ITC, mean of n = 2): -10.0 kcal/mol; -TΔS (ITC) (Table S1, ITC, replicate 1): 0.9 kcal/mol; KD (ITC) (Table S1, ITC, replicate 1): 44.7 nM; ΔG (ITC) (Table S1, ITC, replicate 1): -10.0 kcal/mol; ΔH (ITC) (Table S1, ITC, replicate 1): -11.0 kcal/mol; -TΔS (ITC) (Table S1, ITC, replicate 2): 0.4 kcal/mol; KD (ITC) (Table S1, ITC, replicate 2): 45.3 nM; ΔG (ITC) (Table S1, ITC, replicate 2): -10.0 kcal/mol; ΔH (ITC) (Table S1, ITC, replicate 2): -10.5 kcal/mol
